Measurements: ChEMBL document CHEMBL2413039, “Novel N-hydroxyfurylacrylamide-based histone deacetylase (HDAC) inhibitors with branched CAP group (Part 2)” (Bioorg Med Chem, 2013)

Columns and labels:
[1] = molecular target: Histone deacetylase; assay type: protein assay, Homo sapiens; conditions: hela
[2] = test system: HCT-116; assay: cells; assay type: functional, cell-based; conditions: Homo sapiens, HCT-116, 48 h
[3] = test system: HepG2; assay: cells; assay type: functional, cell-based; conditions: Homo sapiens, HepG2, 48 h
[4] = test system: PC-3; assay: cells; assay type: functional, cell-based; conditions: Homo sapiens, PC-3, 48 h
[5] = test system: A549; assay: cells; assay type: functional, cell-based; conditions: Homo sapiens, A549, 48 h

SMILES	IC50 [1] [µM]	EC50 [2] [µM]	EC50 [3] [µM]	EC50 [4] [µM]	EC50 [5] [µM]
CCCN(CCc1ccc2c(c1)OCO2)Cc1ccc(/C=C/C(=O)NO)o1	1.59	15.9	28.7	7.57	50.6
CCCCCN(Cc1ccc(-c2ccccc2)cc1)Cc1ccc(/C=C/C(=O)NO)o1	> 2.39	8.23	19.7	13.4	14.7
O=C(/C=C/c1ccc(CN(CCCOc2ccccc2)Cc2ccc(-c3ccccc3)cc2)o1)NO	> 2.07	2.05	12.7	25.2	16.6
O=C(/C=C/c1ccc(CN(CCCCOc2ccccc2)CCc2ccc3c(c2)OCO3)o1)NO	1.57	35.9	97.7	15.5	46.8
O=C(/C=C/c1ccc(CN(CCOc2ccccc2)CCc2ccc3c(c2)OCO3)o1)NO	2.36	30.6	68.3	23.7	37.4
O=C(/C=C/c1ccc(CN(CCCCOc2ccccc2)Cc2ccccc2)o1)NO	2.12	6.43	14.7	35.9	10.6
Cc1ccc(OCCCCN(Cc2ccc(-c3ccccc3)cc2)Cc2ccc(/C=C/C(=O)NO)o2)cc1	> 1.96	2.76	15.9	37.6	15.6
CCCCCN(CCc1ccc2c(c1)OCO2)Cc1ccc(/C=C/C(=O)NO)o1	3.49	74.8	65.3	37.1	72.5
O=C(/C=C/c1ccc(CN(CCOc2ccccc2)Cc2ccc(-c3ccccc3)cc2)o1)NO	1.21	9.53	18.1	15.9	26.4
O=C(/C=C/c1ccc(CN(CCO)CCc2ccc3c(c2)OCO3)o1)NO	0.4	69.5	105	92.5	87.9
O=C(/C=C/c1ccc(CN(CCCOc2ccccc2)CCc2ccc3c(c2)OCO3)o1)NO	> 2.22	37.2	110	18.8	16.3
O=C(/C=C/c1ccc(CN(CCc2ccc3c(c2)OCO3)Cc2ccccc2)o1)NO	2.28	91.4	73.2	34.5	35.4
CC(C)N(Cc1ccc(-c2ccccc2)cc1)Cc1ccc(/C=C/C(=O)NO)o1	1.61	2.74	15.5	24.2	15.6
O=C(/C=C/c1ccc(CN(CCCCOc2ccccc2)Cc2ccc(-c3ccccc3)cc2)o1)NO	> 2.02	2.76	32.9	23.6	22.4
Cc1ccc(OCCCN(Cc2ccc(-c3ccccc3)cc2)Cc2ccc(/C=C/C(=O)NO)o2)cc1	1.66	2.22	11.7	18.1	11.5
CCCCCCN(Cc1ccccc1)Cc1ccc(/C=C/C(=O)NO)o1	2.65	8.96	21.8	23.8	11
CC(C)CN(CCc1ccc2c(c1)OCO2)Cc1ccc(/C=C/C(=O)NO)o1	> 2.69	17.1	38	16.1	39.3
CCCCN(CCc1ccc2c(c1)OCO2)Cc1ccc(/C=C/C(=O)NO)o1	> 2.69	17	54.3	33.2	78.2
O=C(/C=C/c1ccc(CN(Cc2ccccc2)Cc2ccc(-c3ccccc3)cc2)o1)NO	> 2.55	9.01	66.6	14.3	69.8
